Reference: article PMC9138505, “Small Molecule 20S Proteasome Enhancer Regulates MYC Protein Stability and Exhibits Antitumor Activity in Multiple Myeloma” (Biomedicines, 2022)
“And” between values parts separate entries of the source, which are not always exact repeats. Equal entries are not always repeated.

System: RPMI-8226 cells
Assay: Gene expression profiling, NanoString nCounter PanCancer Pathways Panel, ROSALIND analysis
Format: cell-based, human
Details: RPMI-8226, TCH-165 samples 1-3
Procedure: RPMI-8226 cells were treated with vehicle or TCH-165 (10 μM) for 4 h. Total RNA was obtained using the mirVana miRNA Isolation Kit, with phenol (Thermofisher Scientific; AM1560; Waltham, MA, USA). Total RNA was quantified by Qubit (Thermofisher Scientific; Q32855; Waltham, MA, USA). and gene expression was evaluated against the nCounter® PanCancer Pathways Panel^TM according to the standard NanoString protocol.
Data were analyzed by ROSALIND® [36] with a hyperscale architecture developed by ROSALIND, Inc. (San Diego, CA, USA). Normalization, fold changes and p-values were calculated using criteria provided by NanoString. ROSALIND follows the nCounter® Advanced Analysis protocol of dividing counts within a lane by the geometric mean of the normalizer probes from the same lane. Housekeeping probes to be used for normalization are selected based on the geNorm algorithm, as implemented in the NormqPCR R library. Fold changes and p-values are calculated using the fast method as described in the nCounter Advanced Analysis 2.0 User Manual. The p-value adjustment is performed using the Benjamini–Hochberg method of estimating false discovery rates (FDR). Clustering of genes for the final heatmap of differentially expressed genes was done using the PAM (Partitioning Around Medoids) method using the fpc R library. Hypergeometric distribution was used to analyze the enrichment of pathways, gene ontology, domain structure and other ontologies. The topGO R library was used to determine local similarities and dependencies between GO terms in order to perform Elim pruning correction. Several database sources were referenced for enrichment analysis, including Interpro [40], NCBI [41], MSigDB [42, 43], REACTOME [44], WikiPathways. Enrichment was calculated relative to a set of background genes relevant to the experiment.

CCOC(=O)[C@]1(c2ccccc2)N=C(c2ccc(OC)cc2)N(Cc2ccccc2)[C@@H]1c1ccc(NCc2ccccc2)cc1 [TCH-165]
CDKN2A normalized gene expression: 7.059 and 6.817 and 7.045 | CDKN2B normalized gene expression: 5.827 and 5.402 and 5.787 | CDKN2C normalized gene expression: 2.401 and 2.3768 and 2.653 | CDKN2D normalized gene expression: 6.667 and 6.808 and 7.091 | CEBPA normalized gene expression: 4.308 and 4.029 and 4.291 | CEBPE normalized gene expression: 3.723 and 3.739 and 3.291 | CHAD normalized gene expression: 4.986 and 5.093 and 4.805 | CHEK1 normalized gene expression: 9.816 and 9.813 (2×) | CHEK2 normalized gene expression: 8.6438 and 8.491 and 8.618 | CHUK normalized gene expression: 8.745 and 8.67 and 8.685 | CIC normalized gene expression: 6.793 and 6.427 and 6.731 | CLCF1 normalized gene expression: 3.723 and 4.2133 and 3.184 | CNTFR normalized gene expression: 4.723 and 5.093 and 4.653 | COL1A1 normalized gene expression: 4.649 and 4.524 and 3.943 | COL1A2 normalized gene expression: 3.401 and 3.154 and 4.0068 | COL2A1 normalized gene expression: 6.015 and 6.817 and 6.494 | COL3A1 normalized gene expression: 4.86 and 4.093 and 4.731 | COL4A3 normalized gene expression: 6.182 and 5.798 and 6.156 | COL4A4 normalized gene expression: 3.208 and 3.739 and 4.613 | COL4A5 normalized gene expression: 4.571 and 3.962 and 3.876 | COL4A6 normalized gene expression: 3.208 and 3.476 and 3.0682 | COL5A1 normalized gene expression: 6.156 and 5.3768 and 5.823 | COL5A2 normalized gene expression: 4.649 and 4.524 and 4.184 | COL11A1 normalized gene expression: 4.793 and 4.029 and 4.184 | COL11A2 normalized gene expression: 3.571 and 3.029 and 2.483 | COMP normalized gene expression: 3.571 and 4.093 and 4.0682 | CREB5 normalized gene expression: 6.467 and 6.324 and 6.437 | CREBBP normalized gene expression: 5.488 and 4.855 and 5.156 | CSF1R normalized gene expression: 3.401 and 3.739 and 3.653 | CSF2 normalized gene expression: 3.86 and 4.029 and 3.291 | CSF3R normalized gene expression: 4.571 and 3.962 and 4.39 | CSF3 normalized gene expression: 4.208 and 3.739 and 3.805 | CTNNB1 normalized gene expression: 11.1942 and 11.0314 and 10.9756 | CUL1 normalized gene expression: 11.4237 and 11.3932 and 11.3628 | CXCL8 normalized gene expression: 7.908 and 8.053 and 8.0531 | CYLD normalized gene expression: 9.829 and 9.692 and 9.711 | DAXX normalized gene expression: 9.74 and 9.747 and 9.706 | DDB2 normalized gene expression: 8.97 and 9.039 and 9.005 | DDIT3 normalized gene expression: 11.9124 and 11.8557 and 11.855 | DDIT4 normalized gene expression: 9.959 and 9.961 and 9.982 | DKK1 normalized gene expression: 5.259 and 4.699 and 4.769 | DKK2 normalized gene expression: 5.488 and 4.657 and 4.805 | DKK4 normalized gene expression: 4.986 and 4.855 and 4.975 | DLL1 normalized gene expression: 4.308 and 4.029 and 3.5707 | DLL3 normalized gene expression: 5.101 and 4.427 and 4.5707 | DLL4 normalized gene expression: 5.401 and 4.817 and 5.211 | DNMT1 normalized gene expression: 10.7929 and 10.7224 and 10.7359 | DNMT3A normalized gene expression: 7.355 and 7.311 and 7.414 | DTX1 normalized gene expression: 5.156 and 5.402 and 5.592 | DTX4 normalized gene expression: 5.793 and 5.996 and 5.9095 | DUSP2 normalized gene expression: 6.378 and 6.364 and 6.623 | DUSP4 normalized gene expression: 7.667 and 7.581 and 7.494 | DUSP5 normalized gene expression: 10.8611 and 10.8321 and 10.8236 | DUSP6 normalized gene expression: 8.008 and 8.128 and 8.003 | DUSP8 normalized gene expression: 6.876 and 6.44 and 6.56 | DUSP10 normalized gene expression: 7.221 and 7.177 and 7.1906 | E2F1 normalized gene expression: 9.135 and 9.126 and 9.063 | E2F5 normalized gene expression: 9.349 and 9.291 and 9.221 | EFNA1 normalized gene expression: 6.283 and 5.2133 and 5.39 | EFNA2 normalized gene expression: 4.924 and 5.2133 and 5.0068 | EFNA3 normalized gene expression: 8.052 and 8.008 and 8.0531 | EFNA5 normalized gene expression: 5.649 and 4.739 and 4.943 | EGF normalized gene expression: 4.86 and 4.569 and 5.0682 | EGFR normalized gene expression: 5.892 and 5.524 and 5.461 | EIF4EBP1 normalized gene expression: 10.6929 and 10.6602 and 10.7353 | ENDOG normalized gene expression: 9.908 and 9.9873 and 9.891 | EP300 normalized gene expression: 9.491 and 9.463 and 9.424 | EPHA2 normalized gene expression: 3.208 and 2.891 and 1.805 | EPO normalized gene expression: 5.101 and 4.324 and 4.483 | EPOR normalized gene expression: 7.259 and 7.147 and 7.1271 | ERBB2 normalized gene expression: 6.044 and 5.427 and 5.291 | ERCC2 normalized gene expression: 6.924 and 6.657 and 6.5707 | ERCC6 normalized gene expression: 6.509 and 6.581 and 6.5707 | ETS2 normalized gene expression: 9.802 and 9.726 and 9.794 | ETV1 normalized gene expression: 9.48 and 9.485 and 9.458 | ETV4 normalized gene expression: 7.978 and 7.949 and 7.741 | ETV7 normalized gene expression: 4.723 and 4.962 and 4.528 | EYA1 normalized gene expression: 7.74 and 7.85 and 7.863 | EZH2 normalized gene expression: 10.3563 and 10.2507 and 10.2954 | FANCA normalized gene expression: 7.073 and 6.808 and 7.015 | FANCB normalized gene expression: 7.62 and 7.291 and 7.576 | FANCC normalized gene expression: 7.86 and 7.614 and 7.764 | FANCE normalized gene expression: 7.61 and 7.608 and 7.587 | FANCF normalized gene expression: 8.337 and 8.334 and 8.268 | FANCG normalized gene expression: 7.571 and 7.364 and 7.478 | FANCL normalized gene expression: 8.9359 and 8.968 and 8.918 | FAS normalized gene expression: 6.723 and 6.719 and 6.613 | FASLG normalized gene expression: 5.044 and 4.614 and 4.769 | FEN1 normalized gene expression: 11.0932 and 10.9634 and 10.9666 | FGF1 normalized gene expression: 4.723 and 4.524 and 5.098
